Results taken from US9045493B2, “Furo[3,2-b]- and thieno[3,2-b]pyridin derivatives” (Merck Patent GmbH, priority 2012, dated 2015).

Assays:
[1] = target: T1, TANK binding kinase (TBK1) (Homo sapiens, UniProt Q9UHD2); assay: TBK1 enzyme assay (384-well Flashplate kinase assay); type: biochemical; conditions: 10 μM ATP, 120 Min at 30° C.
T1 sequence (Q9UHD2 1-729): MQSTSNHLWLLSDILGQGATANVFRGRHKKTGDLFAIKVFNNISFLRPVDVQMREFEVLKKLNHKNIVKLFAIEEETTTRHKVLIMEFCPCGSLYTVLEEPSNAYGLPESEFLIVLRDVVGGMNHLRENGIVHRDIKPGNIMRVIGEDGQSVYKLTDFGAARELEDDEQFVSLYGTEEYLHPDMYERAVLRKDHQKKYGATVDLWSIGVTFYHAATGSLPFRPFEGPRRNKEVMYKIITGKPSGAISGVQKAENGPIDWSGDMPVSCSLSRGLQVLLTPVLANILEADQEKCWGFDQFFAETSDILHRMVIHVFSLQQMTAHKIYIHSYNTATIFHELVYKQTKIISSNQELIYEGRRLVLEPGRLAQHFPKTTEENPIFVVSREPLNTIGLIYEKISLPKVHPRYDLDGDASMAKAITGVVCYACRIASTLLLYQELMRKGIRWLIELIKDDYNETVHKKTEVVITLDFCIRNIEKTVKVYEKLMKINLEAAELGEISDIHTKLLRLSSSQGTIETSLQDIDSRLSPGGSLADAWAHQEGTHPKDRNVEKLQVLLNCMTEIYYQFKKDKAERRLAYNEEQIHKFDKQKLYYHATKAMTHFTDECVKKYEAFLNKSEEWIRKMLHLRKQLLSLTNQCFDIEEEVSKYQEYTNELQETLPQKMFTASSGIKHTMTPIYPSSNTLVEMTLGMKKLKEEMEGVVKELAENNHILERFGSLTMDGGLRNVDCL
Method: The kinase assay is performed as 384-well Flashplate assay (for e.g. Topcount measurement.
0.6 nM TANK binding kinase (TBK1), 800 nM biotinylated MELK-derived peptide (Biotin-Ah-Ah-[…]) and 10 μM ATP (spiked with 0.25 μCi ^33P-ATP/well) are incubated in a total volume of 50 μl (10 mM MOPS, 10 mM Mg-acetat, 0.1 mM EGTA, 1 mM DTT, 0.02% Brij35, 0.1% BSA, pH 7.5) with or without test compound for 120 Min at 30° C. The reaction is stopped with 25 μl 200 mM EDTA. After 30 Min at room temperature the liquid is removed and each well washed thrice with 100 μl 0.9% sodium chloride solution. Nonspecific reaction is determined in presence of 100 nM Staurosporine. Radioactivity is measured in a Topcount (PerkinElmer). Results (e.g. IC50-values) are calculated with program tools provided by the IT-department (e.g. AssayExplorer, Symyx).

[2] = target: T2, IKKε (Homo sapiens, UniProt Q14164); assay: IKKε kinase assay (384-well Flashplate); type: biochemical; conditions: 10 μM ATP, 2 hours at 30° C.; read-out: IKKε enzyme assay IC50
T2 sequence (Q14164 1-716): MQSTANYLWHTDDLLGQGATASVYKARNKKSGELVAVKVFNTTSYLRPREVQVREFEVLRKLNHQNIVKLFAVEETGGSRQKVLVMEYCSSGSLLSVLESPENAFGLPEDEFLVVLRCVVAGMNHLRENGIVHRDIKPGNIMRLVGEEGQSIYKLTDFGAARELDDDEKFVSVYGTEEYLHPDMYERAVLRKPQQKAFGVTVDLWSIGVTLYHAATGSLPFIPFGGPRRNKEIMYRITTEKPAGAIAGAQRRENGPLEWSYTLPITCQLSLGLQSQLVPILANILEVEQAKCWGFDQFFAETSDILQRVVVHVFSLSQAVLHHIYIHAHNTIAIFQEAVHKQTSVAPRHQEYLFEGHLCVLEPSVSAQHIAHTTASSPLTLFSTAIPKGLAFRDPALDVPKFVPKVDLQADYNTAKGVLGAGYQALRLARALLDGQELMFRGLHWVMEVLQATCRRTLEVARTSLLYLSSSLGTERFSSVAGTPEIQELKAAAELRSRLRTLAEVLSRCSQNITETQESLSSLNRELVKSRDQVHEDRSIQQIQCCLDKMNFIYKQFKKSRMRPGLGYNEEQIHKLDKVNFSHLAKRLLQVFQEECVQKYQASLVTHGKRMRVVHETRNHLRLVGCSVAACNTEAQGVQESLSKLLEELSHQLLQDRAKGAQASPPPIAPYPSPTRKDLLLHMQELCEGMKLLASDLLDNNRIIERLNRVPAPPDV
Method: The kinase assay is performed either as 384-well Flashplate assay (for e.g. Topcount measurement).
1 nM IKKε, 800 nM biotinylated IκBα(19-42) peptide (Biotin-C6-C6-[…]) and 10 μM ATP (spiked with 0.3 μCi ^33P-ATP/well) are incubated in a total volume of 50 μl (10 mM MOPS, 10 mM Mg-acetat, 0.1 mM EGTA, 1 mM Dithiothreitol, 0.02% Brij35, 0.1% BSA, 0.1% BioStab, pH 7.5) with or without test compound for 2 hours at 30° C. The reaction is stopped with 25 μl 200 mM EDTA. After 30 Min at room temperature the liquid is removed and each well washed thrice with 100 μl 0.9% sodium chloride solution. […] Radioactivity is measured with Topcount (PerkinElmer). Results (e.g. IC50-values) are calculated with program tools provided by the IT-department (e.g. AssayExplorer, Symyx).

Compound | IC50 [1] | IC50 [2]
CN(CCO)C(=O)c1ccc(-c2cc3nccc(-c4ccc(OC5CCOC5)c(C#N)c4)c3o2)cc1 (stereo not drawn) [Compound A63] | < 300 nM | < 300 nM
CCN(CCOC)C(=O)c1cccc(-c2cc3nccc(-c4ccc(OC5CCOCC5)c(C#N)c4)c3o2)c1 [Compound A26a, 3-{7-[3-cyano-4-(tetrahydro-pyran-4-yloxy)-phenyl]-furo[3,2-b]pyridin-2-yl}-N-ethyl-N-(2-methoxy-ethyl)-benzamide] | 300 to 3000 nM | 300 to 3000 nM
N#Cc1cc(-c2ccnc3cc(-c4ccc(C(=O)NCCO)cc4)oc23)ccc1OC1CCOCC1 [Compound A33, 4-{7-[3-cyano-4-(tetrahydro-pyran-4-yloxy)-phenyl]-furo[3,2-b]pyridin-2-yl}-N-(2-hydroxy-ethyl)-benzamide] | < 300 nM | < 300 nM
N#Cc1cc(-c2ccnc3cc(-c4ccc(CN5CCOCC5)s4)oc23)ccc1OC1CCOCC1 [Compound A47] | < 300 nM | < 300 nM
CN1CCN(C(=O)c2ccc(-c3cc4nccc(-c5ccc(OCC6(C)COC6)c(C#N)c5)c4o3)cc2)CC1 [Compound A61] | < 300 nM | < 300 nM
CN1CCN(c2ccc(-c3cc4nccc(-c5ccc(OC6CCOCC6)c(C#N)c5)c4o3)cc2)CC1 [Compound A10, 5-{2-[4-(4-methyl-piperazin-1-yl)-phenyl]-furo[3,2-b]pyridin-7-yl}-2-(tetrahydro-pyran-4-yloxy)-benzonitrile] | < 300 nM | < 300 nM
N#Cc1cc(-c2ccnc3cc(-c4cnn(CCCO)c4)oc23)ccc1OC1CCOCC1 [Compound A54] | < 300 nM | < 300 nM
N#Cc1cc(-c2ccnc3cc(-c4cnc5ccccc5c4)oc23)ccc1OC1CCOCC1 [Compound A57] | 3000 to 50000 nM | 300 to 3000 nM
CN(CCO)C(=O)c1ccc(-c2cc3nccc(-c4ccc(OCC5(C)COC5)c(C#N)c4)c3o2)cc1 [Compound A62] | < 300 nM | < 300 nM
COc1cc(-c2cc3nccc(-c4ccc(OC5CCOCC5)c(C#N)c4)c3o2)ccc1C(=O)N1CC2(COC2)C1 [Compound A30, 5-{2-[3-methoxy-4-(2-oxa-6-aza-spiro[3.3]heptane-6-carbonyl)-phenyl]-furo[3,2-b]pyridin-7-yl}-2-(tetrahydro-pyran-4-yloxy)-benzonitrile] | < 300 nM | < 300 nM
CCNC(=O)c1ccc(-c2cc3nccc(-c4ccc(OC5CCOCC5)c(C#N)c4)c3o2)cc1 [Compound A20, 4-{7-[3-cyano-4-(tetrahydro-pyran-4-yloxy)-phenyl]-furo[3,2-b]pyridin-2-yl}-N-ethyl-benzamide] | 300 to 3000 nM | 300 to 3000 nM
CN1CCN(C(=O)c2ccc(-c3cc4nccc(-c5ccc(OCC6CC6)c(C#N)c5)c4o3)cc2)CC1 [Compound A39] | < 300 nM | < 300 nM
COc1cc(-c2cc3nccc(-c4ccc(OC5CCOCC5)c(C#N)c4)c3o2)ccc1C(=O)N1CCNCC1 [Compound A35, 5-{2-[3-methoxy-4-(piperazin-1-carbonyl)-phenyl]-furo[3,2-b]pyridin-7-yl}-2-(tetrahydro-pyran-4-yloxy)-benzonitrile] | < 300 nM | < 300 nM
COCCNC(=O)c1ccc(-c2cc3nccc(-c4ccc(OC5CCOCC5)c(C#N)c4)c3o2)cc1 [Compound A22, 4-{7-[3-cyano-4-(tetrahydro-pyran-4-yloxy)-phenyl]-furo[3,2-b]pyridin-2-yl}-N-(2-methoxy-ethyl)-benzamide] | 300 to 3000 nM | 300 to 3000 nM
CN1CCN(c2cccc(-c3cc4nccc(-c5ccc(OC6CCOCC6)c(C#N)c5)c4o3)c2)CC1 [Compound A9, 5-{2-[3-(4-methyl-piperazin-1-yl)-phenyl]-furo[3,2-b]pyridin-7-yl}-2-(tetrahydro-pyran-4-yloxy)-benzonitrile] | < 300 nM | < 300 nM
N#Cc1cc(-c2ccnc3cc(-c4ccc(C(=O)N5CCNCC5)cc4)sc23)ccc1OC1CCOCC1 [Compound A53] | < 300 nM | < 300 nM
N#Cc1cc(-c2ccnc3cc(-c4cccc5[nH]cnc45)oc23)ccc1OC1CCOCC1 [Compound A13, 5-[2-(1H-benzoimidazol-4-yl)-furo[3,2-b]pyridin-7-yl]-2-(tetrahydro-pyran-4-yloxy)-benzonitrile] | 300 to 3000 nM | 300 to 3000 nM

Results, then the compound that gave them:

IC50 [1] | IC50 [2] | Compound
< 300 nM | < 300 nM | COc1cc(-c2cc3nccc(-c4ccc(OC5CCOCC5)c(C#N)c4)c3o2)ccc1C(=O)NCCN1CCC(F)(F)CC1 [Compound A90]
< 300 nM | < 300 nM | COCCn1cc(-c2cc3nccc(-c4ccc(OC5CCOCC5)c(C#N)c4)c3s2)cn1 [Compound A119]
< 300 nM | < 300 nM | COc1cc(-c2cc3nccc(-c4ccc(OC5CCOCC5)c(C#N)c4)c3o2)ccc1C(=O)N1CCN(CCO)CC1 [Compound A89]
< 300 nM | < 300 nM | COc1cc(-c2cc3nccc(-c4ccc(OC5CCOCC5)c(C#N)c4)c3o2)ccc1C(=O)N1CCC(O)CC1 [Compound A101]
< 300 nM | < 300 nM | COc1cc(-c2cc3nccc(-c4ccc(OC5CCOCC5)c(C#N)c4)c3o2)ccc1C(=O)N[C@@H]1CCCNC1 [Compound A106]
< 300 nM | < 300 nM | CC(=O)NCCNC(=O)c1ccc(-c2cc3nccc(-c4ccc(OC5CCOCC5)c(C#N)c4)c3o2)cc1 [Compound A80]
300 to 3000 nM | < 300 nM | COc1cncc(-c2cc3nccc(-c4ccc(OC5CCOCC5)c(C#N)c4)c3o2)c1 [Compound A66]
300 to 3000 nM | < 300 nM | N#Cc1cc(-c2ccnc3cc(-c4ccc(C(=O)NCCc5cccnc5)cc4)oc23)ccc1OC1CCOCC1 [Compound A81]
< 300 nM | < 300 nM | COc1cc(C(=O)N2CCC(O)CC2)ccc1-c1cc2nccc(-c3ccc(OC4CCOCC4)c(C#N)c3)c2o1 [Compound A116]
< 300 nM | < 300 nM | CN1CCN(C(=O)c2ccc(-c3cc4nccc(-c5ccc(N6CCCC6)c(C#N)c5)c4o3)cc2)CC1 [Compound A74]
< 300 nM | < 300 nM | N#Cc1cc(-c2ccnc3cc(-c4cnn(C5CCN(CCO)CC5)c4)oc23)ccc1OC1CCOCC1 [Compound A67]
< 300 nM | < 300 nM | COc1cc(C(=O)N[C@H]2CCCNC2)ccc1-c1cc2nccc(-c3ccc(OC4CCOCC4)c(C#N)c3)c2o1 [Compound A118]
< 300 nM | < 300 nM | N#Cc1cc(-c2ccnc3cc(-c4ccc(C(=O)NCCN5CCCC5)cc4)oc23)ccc1OC1CCOCC1 [Compound A78]
